# Measured values taken from ChEMBL document CHEMBL2401728, “An unexpected Dimroth rearrangement leading to annelated thieno[3,2-d][1,2,3]triazolo[1,5-a]pyrimidines with potent antitumor activity” (Eur J Med Chem, 2013).
# Assays:
# Format in all cases: functional
# U-251 = assay: Cytotoxicity against human U251 cells assessed as cellular growth at 0.01 uM after 48 hrs by SRB assay relative to control
# SF-295 = assay: Cytotoxicity against human SF295 cells assessed as cellular growth at 0.01 uM after 48 hrs by SRB assay relative to control
# COLO 205 = assay: Cytotoxicity against human COLO205 cells assessed as cellular growth at 0.01 uM after 48 hrs by SRB assay relative to control
# HOP-92 = assay: Cytotoxicity against human HOP92 cells assessed as cellular growth at 0.01 uM after 48 hrs by SRB assay relative to control
# K562 = assay: Cytotoxicity against human K562 cells assessed as cellular growth at 0.01 uM after 48 hrs by SRB assay relative to control
# RXF 393 [1] = assay: Cytotoxicity against human RXF393 cells assessed as cellular growth at 100 uM after 48 hrs by SRB assay relative to control
# SK-MEL-5 = assay: Cytotoxicity against human SK-MEL-5 cells assessed as cellular growth at 100 uM after 48 hrs by SRB assay relative to control
# MDA-MB-435 = assay: Cytotoxicity against human MDA-MB-435 cells assessed as cellular growth at 100 uM after 48 hrs by SRB assay relative to control
# LOX IMVI = assay: Cytotoxicity against human LOXIMVI cells assessed as cellular growth at 100 uM after 48 hrs by SRB assay relative to control
# SW-620 = assay: Cytotoxicity against human SW620 cells assessed as cellular growth at 100 uM after 48 hrs by SRB assay relative to control
# NCI-H23 = assay: Cytotoxicity against human NCI-H23 cells assessed as cellular growth at 100 uM after 48 hrs by SRB assay relative to control
# SR [2] = assay: Cytotoxicity against human SR cells assessed as cellular growth at 100 uM after 48 hrs by SRB assay relative to control
# HL-60(TB) [3] = assay: Cytotoxicity against human HL-60(TB) cells assessed as cellular growth at 100 uM after 48 hrs by SRB assay relative to control
# A498 = assay: Cytotoxicity against human A498 cells assessed as cellular growth at 10 uM after 48 hrs by SRB assay relative to control
# HCT-116 = assay: Cytotoxicity against human HCT116 cells assessed as cellular growth at 10 uM after 48 hrs by SRB assay relative to control
# BT-549 = assay: Cytotoxicity against human BT549 cells assessed as cellular growth at 1 uM after 48 hrs by SRB assay relative to control
# DU-145 [4] = assay: Cytotoxicity against human DU145 cells assessed as cellular growth at 1 uM after 48 hrs by SRB assay relative to control
# TK-10 = assay: Cytotoxicity against human TK10 cells assessed as cellular growth at 1 uM after 48 hrs by SRB assay relative to control
# ACHN = assay: Cytotoxicity against human ACHN cells assessed as cellular growth at 1 uM after 48 hrs by SRB assay relative to control
# SK-OV-3 = assay: Cytotoxicity against human SKOV3 cells assessed as cellular growth at 1 uM after 48 hrs by SRB assay relative to control
# UACC-62 [5] = assay: Cytotoxicity against human UACC62 cells assessed as cellular growth at 1 uM after 48 hrs by SRB assay relative to control
# Malme-3M = assay: Cytotoxicity against human MALME-3M cells assessed as cellular growth at 1 uM after 48 hrs by SRB assay relative to control
# SNB-19 = assay: Cytotoxicity against human SNB19 cells assessed as cellular growth at 1 uM after 48 hrs by SRB assay relative to control
# SF-268 = assay: Cytotoxicity against human SF268 cells assessed as cellular growth at 1 uM after 48 hrs by SRB assay relative to control
# [6] = Cytotoxicity against human EKVX cells assessed as cellular growth at 1 uM after 48 hrs by SRB assay relative to control
# A549 = assay: Cytotoxicity against human A549 cells assessed as cellular growth at 1 uM after 48 hrs by SRB assay relative to control
# HL-60(TB) [7] = assay: Cytotoxicity against human HL-60(TB) cells assessed as cellular growth at 1 uM after 48 hrs by SRB assay relative to control
# NCI-H522 = assay: Cytotoxicity against human NCI-H522 cells after 48 hrs by SRB assay; conditions: NCI-H522, 48 h
# [8] = Cytotoxicity against human EKVX cells after 48 hrs by SRB assay
# SR [9] = assay: Cytotoxicity against human SR cells after 48 hrs by SRB assay
# CCRF-CEM = assay: Cytotoxicity against human CCRF-CEM cells after 48 hrs by SRB assay
# DU-145 [10] = assay: Cytotoxicity against human DU145 cells assessed as cellular growth at 0.1 uM after 48 hrs by SRB assay relative to control
# OVCAR-5 = assay: Cytotoxicity against human OVCAR5 cells assessed as cellular growth at 0.1 uM after 48 hrs by SRB assay relative to control
# OVCAR-4 = assay: Cytotoxicity against human OVCAR4 cells assessed as cellular growth at 0.1 uM after 48 hrs by SRB assay relative to control
# UACC-62 [11] = assay: Cytotoxicity against human UACC62 cells assessed as cellular growth at 0.1 uM after 48 hrs by SRB assay relative to control
# SK-MEL-28 = assay: Cytotoxicity against human SK-MEL-28 cells assessed as cellular growth at 0.1 uM after 48 hrs by SRB assay relative to control
# NCI-H322M = assay: Cytotoxicity against human NCI-H322M cells assessed as cellular growth at 0.1 uM after 48 hrs by SRB assay relative to control
# HL-60(TB) [12] = assay: Cytotoxicity against human HL-60(TB) cells assessed as cellular growth at 0.1 uM after 48 hrs by SRB assay relative to control
# MCF7 = assay: Cytotoxicity against human MCF7 cells assessed as cellular growth at 0.01 uM after 48 hrs by SRB assay relative to control
# RXF 393 [13] = assay: Cytotoxicity against human RXF393 cells assessed as cellular growth at 0.01 uM after 48 hrs by SRB assay relative to control
# [14] = read-out: LC50 (the source's name)
# [15] = read-out: pLC50 (the source's name) (converted)
smiles,measurement,setting,value
O=C(CCCn1c2c(sc3ccccc32)c(=O)n2nnc(-c3ccccc3)c12)NCCc1c[nH]cn1,Activity,U-251,78%
same,Activity,SF-295,101%
same,Activity,COLO 205,87%
same,Activity,HOP-92,99%
same,Activity,K562,65%
same,Activity,RXF 393 [1],-61%
same,Activity,SK-MEL-5,-100%
same,Activity,MDA-MB-435,-76%
same,Activity,LOX IMVI,-100%
same,Activity,SW-620,-100%
same,Activity,NCI-H23,-38%
same,Activity,SR [2],-100%
same,Activity,HL-60(TB) [3],-89%
same,Activity,A498,-85%
same,Activity,HCT-116,-100%
same,Activity,BT-549,100%
same,Activity,DU-145 [4],55%
same,Activity,TK-10,121%
same,Activity,ACHN,83%
same,Activity,SK-OV-3,84%
same,Activity,UACC-62 [5],94%
same,Activity,Malme-3M,81%
same,Activity,SNB-19,65%
same,Activity,SF-268,79%
same,Activity,[6],79%
same,Activity,A549,64%
same,Activity,HL-60(TB) [7],29%
same,GI50,NCI-H522; read-out: GI50,0.0435 µM
same,CC50,NCI-H522; [14],> 100 µM
same,TGI,NCI-H522; read-out: TGI,3.11 µM
same,GI50,NCI-H522; read-out: pGI50 (converted),0.0437 µM
same,TGI,NCI-H522; read-out: pTGI (converted),3.09 µM
same,GI50,[8]; read-out: GI50,2.5 µM
same,CC50,[8]; [14],> 100 µM
same,TGI,[8]; read-out: TGI,15.8 µM
same,GI50,[8]; read-out: pGI50 (converted),2.51 µM
same,CC50,[8]; [15],> 100 µM
same,TGI,[8]; read-out: pTGI (converted),15.8 µM
same,GI50,SR [9]; read-out: GI50,0.218 µM
same,CC50,SR [9]; [14],4.99 µM
same,TGI,SR [9]; read-out: TGI,0.664 µM
same,GI50,SR [9]; read-out: pGI50 (converted),0.219 µM
same,CC50,SR [9]; [15],5.01 µM
same,TGI,SR [9]; read-out: pTGI (converted),0.661 µM
same,GI50,CCRF-CEM; read-out: GI50,0.0156 µM
same,CC50,CCRF-CEM; [14],5.29 µM
same,TGI,CCRF-CEM; read-out: TGI,0.29 µM
same,GI50,CCRF-CEM; read-out: pGI50 (converted),0.0155 µM
same,CC50,CCRF-CEM; [15],5.25 µM
same,TGI,CCRF-CEM; read-out: pTGI (converted),0.288 µM
same,Activity,DU-145 [10],87%
same,Activity,OVCAR-5,36%
same,Activity,OVCAR-4,100%
same,Activity,UACC-62 [11],96%
same,Activity,SK-MEL-28,121%
same,Activity,NCI-H322M,78%
same,Activity,HL-60(TB) [12],43%
same,Activity,MCF7,98%
same,Activity,RXF 393 [13],118%
CN1CCN(CCCn2c3c(sc4ncccc43)c(=O)n3nnc(-c4ccccc4)c23)CC1,Activity,U-251,97%
same,Activity,SF-295,106%
same,Activity,COLO 205,95%
same,Activity,HOP-92,99%
same,Activity,K562,95%
same,Activity,RXF 393 [1],-83%
same,Activity,SK-MEL-5,-96%
same,Activity,MDA-MB-435,-83%
same,Activity,LOX IMVI,-46%
same,Activity,SW-620,-75%
same,Activity,NCI-H23,-59%
same,Activity,SR [2],-42%
same,Activity,HL-60(TB) [3],-62%
same,Activity,A498,57%
same,Activity,HCT-116,-92.56%
same,Activity,BT-549,97%
same,Activity,DU-145 [4],95%
same,Activity,TK-10,119%
same,Activity,ACHN,84%
same,Activity,SK-OV-3,106%
same,Activity,UACC-62 [5],84%
same,Activity,Malme-3M,105%
same,Activity,SNB-19,107%
same,Activity,SF-268,83%
same,Activity,[6],95%
same,Activity,A549,95%
same,Activity,HL-60(TB) [7],89%
same,GI50,NCI-H522; read-out: GI50,1.92 µM
same,TGI,NCI-H522; read-out: TGI,3.7 µM
same,GI50,NCI-H522; read-out: pGI50 (converted),1.91 µM
same,TGI,NCI-H522; read-out: pTGI (converted),3.72 µM
same,GI50,[8]; read-out: GI50,2.12 µM
same,CC50,[8]; [14],15.7 µM
same,TGI,[8]; read-out: TGI,4.9 µM
same,GI50,[8]; read-out: pGI50 (converted),2.14 µM
same,CC50,[8]; [15],83.2 µM
same,TGI,[8]; read-out: pTGI (converted),4.9 µM
same,GI50,SR [9]; read-out: GI50,2.25 µM
same,TGI,SR [9]; read-out: TGI,4.74 µM
same,GI50,SR [9]; read-out: pGI50 (converted),2.24 µM
same,TGI,SR [9]; read-out: pTGI (converted),4.79 µM
same,GI50,CCRF-CEM; read-out: GI50,1.67 µM
same,CC50,CCRF-CEM; [14],> 100 µM
same,TGI,CCRF-CEM; read-out: TGI,4.29 µM
same,GI50,CCRF-CEM; read-out: pGI50 (converted),1.66 µM
same,CC50,CCRF-CEM; [15],> 100 µM
same,TGI,CCRF-CEM; read-out: pTGI (converted),4.27 µM
same,Activity,DU-145 [10],98%
same,Activity,OVCAR-5,102%
same,Activity,OVCAR-4,101%
same,Activity,UACC-62 [11],79%
same,Activity,SK-MEL-28,95%
same,Activity,NCI-H322M,80%
same,Activity,HL-60(TB) [12],91%
same,Activity,MCF7,91%
same,Activity,RXF 393 [13],100%
